The test system of this assay is Bovine cardiac myofibrils. Put plainly: In vitro model of dose-dependent myofibril ATPase modulation (AC1.4, pyruvate kinase/lactate dehydrogenase-coupled ATPase assay at pCa25). To be noted: concentration at which ATPase activity was 1.4-fold higher than the bottom of the dose curve, mean of a minimum of two independent tests. It counts as biochemical. The method in brief: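 Compound dilutions were premixed with myofibrils, coupling enzymes, EGTA and CaCl2, then the reaction was started with an equal volume carrying ATP (final 1 mM), NADH and PEP. ATP turnover was followed at 340 nm, and dose responses were fit to a four-parameter equation.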

`O=C(NCc1ccc(C(F)(F)F)cc1)[C@H]1COCCN1C(=O)c1cccc(S(=O)(=O)N2CC3(CC3)C2)c1` [Example 537, (R)-4-(3-((5-azaspiro[2.3]hexan-5-yl)sulfonyl)benzoyl)-N-(4-(trifluoromethyl)benzyl)morpholine-3-carboxamide] displayed an AC1.4 of 2.7025 µM.
To `N#CC1CN(S(=O)(=O)N2CCC[C@@H](C(=O)N3CCC[C@@H]3C(=O)NCc3ccc(C(F)(F)F)cc3F)C2)C1` [Example 539, 1-(((3R)-1-((3-cyano-1-azetidinyl)sulfonyl)-3-piperidinyl)carbonyl)-N-(2-fluoro-4-(trifluoromethyl)benzyl)-D-prolinamide] belongs 2.753 µM; to `C[C@@H](NC(=O)[C@H]1CCCN1C(=O)[C@H]1CCCN(S(=O)(=O)N2CC(C#N)C2)C1)c1ccc(C#N)cc1` [Example 540, 1-(((3S)-1-((3-cyano-1-azetidinyl)sulfonyl)-3-piperidinyl)carbonyl)-N-((1R)-1-(4-cyanophenyl)ethyl)-D-prolinamide], 2.7885 µM.
To `Cc1cc(C(=O)N2[C@@H](C(=O)N[C@@H](c3ccc(C(F)(F)F)cc3F)C3COC3)C[C@H]3C[C@H]32)c(NCCO)cn1` [Example 541, (1R,3R,5R)-N-((R)-(2-fluoro-4-(trifluoromethyl)phenyl)(3-oxetanyl)methyl)-2-((5-((2-hydroxyethyl)amino)-2-methyl-4-pyridinyl)carbonyl)-2-azabicyclo[3.1.0]hexane-3-carboxamide] belongs 2.789 µM; to `CS(=O)(=O)c1cccc(C(=O)N2C(=O)OC[C@@H]2C(=O)N[C@@H](c2ccc(C(F)(F)F)cc2F)C2CC2)c1` [Example 543, (4R)-N-((R)-cyclopropyl(2-fluoro-4-(trifluoromethyl)phenyl)methyl)-3-(3-(methylsulfonyl)benzoyl)-2-oxo-1,3-oxazolidine-4-carboxamide], 2.813 µM.
To `Cc1ccc(CNC(=O)[C@H]2CCCN2C(=O)[C@H]2CCCN(S(=O)(=O)N3CC(C#N)C3)C2)cc1C(F)(F)F` [Example 544, 1-(((3S)-1-((3-cyano-1-azetidinyl)sulfonyl)-3-piperidinyl)carbonyl)-N-(4-methyl-3-(trifluoromethyl)benzyl)-D-prolinamide] belongs 2.8175 µM; to `Cc1cc(C(=O)N2[C@@H](C(=O)N[C@@H](c3ccc(C(F)(F)F)cc3F)C3CC3)C[C@H]3C[C@H]32)c(NCCO)cn1` [Example 545, (1R,3R,5R)-N-((R)-cyclopropyl(2-fluoro-4-(trifluoromethyl)phenyl)methyl)-2-((5-((2-hydroxyethyl)amino)-2-methyl-4-pyridinyl)carbonyl)-2-azabicyclo[3.1.0]hexane-3-carboxamide], 2.818 µM.
`CS(=O)(=O)c1cccc(C(=O)N2C[C@@H](F)C[C@@H]2C(=O)N[C@@H](c2ccc(C(F)(F)F)cc2)C2COC2)c1` [Example 546, (4S)-4-fluoro-1-(3-(methylsulfonyl)benzoyl)-N-((R)-3-oxetanyl(4-(trifluoromethyl)phenyl)methyl)-D-prolinamide] gave an AC1.4 of 2.6257 µM.
To `O=C(N[C@@H](c1ccc(C(F)(F)F)cc1F)C1CC1)[C@H]1C[C@H]2C[C@H]2N1C(=O)c1cccc(C(O)C(F)(F)F)c1` (stereo partly drawn) [Example 547, (1R,3R,5R)-N-((R)-cyclopropyl(2-fluoro-4-(trifluoromethyl)phenyl)methyl)-2-(3-(2,2,2-trifluoro-1-hydroxyethyl)benzoyl)-2-azabicyclo[3.1.0]hexane-3-carboxamide] belongs 2.836 µM.
To `CS(=O)(=O)c1cncc(C(=O)N2[C@@H](C(=O)N[C@@H](c3ccc(C(F)(F)F)c(F)c3)C3CC3)C[C@H]3C[C@H]32)c1` [Example 548, (1R,3R,5R)-N-((R)-cyclopropyl(3-fluoro-4-(trifluoromethyl)phenyl)methyl)-2-((5-(methylsulfonyl)-3-pyridinyl)carbonyl)-2-azabicyclo[3.1.0]hexane-3-carboxamide] belongs 2.66 µM; to `N#CC1CN(S(=O)(=O)N2CCC[C@H](C(=O)N3CCC[C@@H]3C(=O)NCc3cc(Cl)ccc3F)C2)C1` [Example 549, N-(5-chloro-2-fluorobenzyl)-1-(((3S)-1-((3-cyano-1-azetidinyl)sulfonyl)-3-piperidinyl)carbonyl)-D-prolinamide], 2.8405 µM; to `CS(=O)(=O)c1ccc(N2CC(C#N)C2)c(C(=O)N2CCC[C@@H]2C(=O)N[C@@H](c2ccc(C(F)(F)F)cc2F)C2CC2)c1` [Example 550, (R)-1-(2-(3-cyanoazetidin-1-yl)-5-(methylsulfonyl)benzoyl)-N—((R)-cyclopropyl(2-fluoro-4-(trifluoromethyl)phenyl)methyl)pyrrolidine-2-carboxamide], 2.8425 µM.
The same measure for `N#Cc1ccc(CNC(=O)[C@H]2CCCN2C(=O)[C@H]2CCCN(S(=O)(=O)N3CC(C#N)C3)C2)cc1` [Example 551, 1-(((3S)-1-((3-cyano-1-azetidinyl)sulfonyl)-3-piperidinyl)carbonyl)-N-(4-cyanobenzyl)-D-prolinamide]: 2.8435 µM.
Compound `CS(=O)(=O)c1cccc(C(=O)N2CCSCC2C(=O)N[C@@H](c2ccc(C(F)(F)F)cc2F)C2CC2)c1` (stereo partly drawn) [Example 552, N-((R)-cyclopropyl(2-fluoro-4-(trifluoromethyl)phenyl)methyl)-4-(3-(methylsulfonyl)benzoyl)thiomorpholine-3-carboxamide] displayed an AC1.4 of 2.854 µM.
The same measure for `O=C(N[C@@H](c1ccc(C(F)(F)F)cc1F)C1CC1)[C@H]1C[C@H]2C[C@H]2N1C(=O)c1ccccc1NC(=O)C(F)(F)F` [Example 553, (1R,3R,5R)-N-((R)-cyclopropyl(2-fluoro-4-(trifluoromethyl)phenyl)methyl)-2-(2-(2,2,2-trifluoroacetamido)benzoyl)-2-azabicyclo[3.1.0]hexane-3-carboxamide]: 2.873 µM; for `CCOc1ccc(S(C)(=O)=O)cc1C(=O)N1CCC[C@@H]1C(=O)N[C@@H](c1ccc(C(F)(F)F)cc1F)C1CC1` [Example 554, N-((R)-cyclopropyl(2-fluoro-4-(trifluoromethyl)phenyl)methyl)-1-(2-ethoxy-5-(methylsulfonyl)benzoyl)-D-prolinamide]: 2.688 µM; for `CCc1ccnc(C(=O)N2[C@@H](C(=O)N[C@@H](c3cc(F)c(Cl)cc3F)C3COC3)C[C@H]3C[C@H]32)c1` [Example 555, (1R,3R,5R)-N-((R)-(4-chloro-2,5-difluorophenyl)(3-oxetanyl)methyl)-2-((4-ethyl-2-pyridinyl)carbonyl)-2-azabicyclo[3.1.0]hexane-3-carboxamide]: 2.893 µM.
The same measure for `O=C(N[C@@H](c1ccc(C(F)(F)F)cc1F)C1CC1)[C@H]1CCCN1C(=O)c1cccc(C(O)C(F)(F)F)c1` (stereo partly drawn) [Example 556, (2R)-N-((R)-cyclopropyl(2-fluoro-4-(trifluoromethyl)phenyl)methyl)-1-(3-(2,2,2-trifluoro-1-hydroxyethyl)benzoyl)pyrrolidine-2-carboxamide]: 2.9075 µM; for `COc1ccc(CNC(=O)[C@H]2CCCN2C(=O)[C@H]2CCCN(S(=O)(=O)N3CC(C#N)C3)C2)c(F)c1` [Example 557, 1-(((3S)-1-((3-cyano-1-azetidinyl)sulfonyl)-3-piperidinyl)carbonyl)-N-(2-fluoro-4-methoxybenzyl)-D-prolinamide]: 2.9265 µM.
The same measure for `CS(=O)(=O)c1cccc(C(=O)N2[C@@H](C(=O)N[C@@H](c3ccc(C(F)(F)F)cc3F)C3(O)CC3)C[C@H]3C[C@H]32)c1` [Example 559, (1R,3R,5R)-N-((S)-(2-fluoro-4-(trifluoromethyl)phenyl)(1-hydroxycyclopropyl)methyl)-2-(3-(methylsulfonyl)benzoyl)-2-azabicyclo[3.1.0]hexane-3-carboxamrde]: 2.7115 µM; for `O=C(NCc1ccc(C(F)(F)F)cc1)[C@H]1CCCN1C(=O)c1cccc(S(=O)(=O)N2CC[C@@H](O)C2)c1` [Example 560, 1-((3-(((3R)-3-hydroxy-1-pyrrolidinyl)sulfonyl)phenyl)carbonyl)-N-(4-(trifluoromethyl)benzyl)-D-prolinamide,1-((3-(((3S)-3-hydroxy-1-pyrrolidinyl)sulfonyl)phenyl)carbonyl)-N-(4-(trifluoromethyl)benzyl)-D-prolinamide]: 2.9638 µM; for `N#CC1CN(S(=O)(=O)N2CCC[C@H](C(=O)N3CCC[C@@H]3C(=O)N[C@@H](CO)c3ccc(C(F)(F)F)cc3)C2)C1` [Example 561, 1-(((3S)-1-((3-cyano-1-azetidinyl)sulfonyl)-3-piperidinyl)carbonyl)-N-((1R)-2-hydroxy-1-(4-(trifluoromethyl)phenyl)ethyl)-D-prolinamide]: 2.9935 µM.
With `O=C(NCc1ccc(C(F)(F)F)cc1)[C@H]1CCCN1C(=O)[C@H]1CCCN(S(=O)(=O)N2CC(n3ccnc3)C2)C1` [Example 562, 1-(((3S)-1-((3-(1H-imidazol-1-yl)-1-azetidinyl)sulfonyl)-3-piperidinyl)carbonyl)-N-(4-(trifluoromethyl)benzyl)-D-prolinamide], the AC1.4 turned out to be 3.025 µM.
The same measure for `CS(=O)(=O)c1ccc(F)c(C(=O)N2CCC[C@@H]2C(=O)N[C@@H](c2ccc(C(F)(F)F)cc2F)C2CC2)c1F` [Example 563, N-((R)-cyclopropyl(2-fluoro-4-(trifluoromethyl)phenyl)methyl)-1-(2,6-difluoro-3-(methylsulfonyl)benzoyl)-D-prolinamide]: 2.8195 µM.
The same measure for `CCN(CC)S(=O)(=O)c1cccc(C(=O)N2CCC[C@@H]2C(=O)NCc2ccc(C(F)(F)F)cc2)c1` [Example 564, 1-(3-(diethylsulfamoyl)benzoyl)-N-(4-(trifluoromethyl)benzyl)-D-prolinamide]: 3.077 µM.
